Drawing on patent US7078057B2, “Process for producing nanometer particles by fluid bed spray-drying” (priority 1999, dated 2006), this text covers volume-weighted mean diameter for 1 compound.

Molecules are shown by their SMILES.

The series in a line: Particle size by laser diffraction using photo correlation spectroscopy (Nicomp C370). The series is classed as physicochemical. To be noted: ganaxolone particles in spray-dried mixture with lactose (Example I). Here is the method: For purposes of the present invention, particle size in the mixtures is determined by a laser diffraction technique using photo correlation spectroscopy (Nicomp C370). The results are reported in terms of volume-weighted mean diameter. Volume-weighted mean diameter is defined as follows: (Σnd^4)/(Σnd^3) where n=the number of particles in a size interval characterized by a diameter “d”. Remington's Pharmaceutical Sciences, 18th edition, Mack Publishing Company, Easton, Pa. (1990).
Approximately 100 g of ganaxolone was dissolved in 5 kg of ethanol with slight warming to 30° C. The solution was sprayed into 1 kg of spray-dried lactose NF (Fast Flo #316) in a Vector FL-M-1 fluid bed system equipped with a 6″ Wurster column. The spray rate was 34–41 mL/min using one gun. The static inlet pressure was 2.5–8 bar (250–800 kPa) affording an air flow of 25–45 cfm. The inlet temperature was 85–90° C. and the product temperature was 27–48° C. The resulting ganaxolone powder mixture was free-flowing and contained 63 mg ganaxolone per g of powder. The ganaxolone particle size in the mixture was determined by a laser diffraction technique using photo correlation spectroscopy (Nicomp C370).

For the compound `CC(=O)[C@H]1CC[C@H]2[C@@H]3CC[C@H]4C[C@](C)(O)CC[C@]4(C)[C@H]3CC[C@]12C` [ganaxolone, 3α-hydroxy-3β-methyl-5α-pregnan-20-one], the volume-weighted mean diameter amounted to 660 nm.
